Results as given in patent publication US6458381B1, “Lipids and their use, for example, in liposomes” (priority 1996, dated 2002).

How the values were obtained:
Format in all cases: cell-based, human
HeLa cells [1] = assay: Transfection of HeLa cells with pCMVL, luciferase assay
Procedure: The cells were resuspended in fresh medium and placed either in 24-well plates (5×10^4 cells per well) or in 6-well plates (2-2.5×10^4 cells per well). Just before transfection, the cells were placed in fresh medium with or without 10% FCS. In general, cells were transfected at 50 to 70% confluence. […] Cell debris was removed by centrifugation (14000 rpm for 2 min). Usually, enzyme activity (see below) was determined directly after cell lysis.
Plasmid DNA (from a stock solution of a concentration of about 1 mg/ml) and cationic lipids (from a stock solution of a concentration 1 to 2 mg/ml) were diluted separately in 1.5 ml Eppendorf tubes with 10 mM Hepes, 0.9% NaCl buffer, pH 7.4, to the final volume of 100 μl. The amount of DNA in typical transfections varied from 1 to 2 μg per 100 μl. The amount of a cationic lipid varied from 0 to 20 μg per 100 μl. Two solutions were mixed together to form a DNA-lipid solution. After incubation for 10 min at room temperature the resultant DNA-lipid solution was added to the cell cultures, growing as described before, and gently mixed. Alternatively, the DNA-lipid solution was diluted with 800 μl (for 24- or 6-well plates) of the appropriate medium (+/−FCS) and mixed. The diluted solution was then overlayed onto the cells, rinsed with the appropriate medium. […] A typical incubation time in the absence of serum was 4 hours. The transfection medium was then substituted with a complete growth medium. In the presence of serum, the transfection medium was usually not replaced and the cells continued to grow in the presence of complexes until the end of experiments (one step transfection).
Luciferase assay. […] The luciferase assay was performed by adding 5 to 10 μl of cell extract.
Just before transfection, the medium was removed and cells were supplied with 1 ml fresh medium with or without serum. […] In the absence of serum, the transfection medium was removed after 4 hours, and the cells were supplied with 1 ml fresh serum supplemented medium. […]

K562 cells = assay: Transfection of K562 suspension cells with pCMVL, luciferase assay; settings: K562, presence of serum
Procedure: HeLa (CCL2, epitheloid carcinoma, human), COS-7 (CRL 1651, kidney, SV-40 transformed, African green monkey), HT-29 (HTB 38, adenocarcinoma, colon, human), CV-1 (CCL 70, kidney, African green monkey), 818-4 (adenocarcinoma, pancreas, human), H4IIE (CRL 1548; hepatoma, rat), K562 (CCL 243; chronic myelogenous leukemia, human), HL-60 (CCL 240; promyelotic leukemia, human) were grown in 5% CO2 at 37° C. on plastic tissue culture flasks in RPMI 1640 or DMEM with 10% fetal calf serum and supplemented with penicillin at 100 units per ml, streptomycin at 100 μg per ml, 2 mM glutamine and 0.1 μM dexamethasone for H4IIE cells.
At 24 hours before transfection, the cells were placed in fresh complete growth medium. Just before transfection, the cells were collected, resuspended in fresh medium with or without 10% FCS at 0.25×10^6 cells per ml, and placed in 24-well plates, 2 ml per well.
The cells were normally harvested 24 hours after transfection (the time of harvesting is an important variable and should be optimized), collected by centrifugation and resuspended in 10 ml of PBS, again centrifuged, and the cell pellet was transferred into a 1.5 ml Eppendorf tube with 1 ml PBS. The cells were centrifuged in the Eppendorf centrifuge (14000 rpm for 20 sec), The resulting cells were lysed in 100 μl of lysis buffer (described above). […]

HeLa cells [2] = assay: Intracellular delivery of fluorescein labelled phosphothioate oligonucleotide, fluorescent microscopy
Procedure: HeLa cells (plated one day before the experiment, 2×10^5 cells per well, 6-well plate) were grown on glass microscope slides in 2 ml of RPMI 1640 supplemented with 10% FCS. Before the experiment, the medium was replaced with RPMI 1640 without serum.
Formation of oligonucleotide-compound (1) complexes was done as follows. 10 μg of phosphothioate oligonucleotide was dissolved in […] of transfection buffer. 16 μg and 50 μg of compound (1) were diluted with transfection buffer to the final volume of 100 μl. The two solutions were mixed together and incubated for 10 min. Oligonucleotide solution without compound (1) was diluted with 100 μl of transfection buffer. The resultant solutions (200 μl per well) were added to the cell cultures (final concentration of oligonucleotide was about 1 μM, compound (1) 8 μM and 25 μM). The complexes were incubated with the cells for 4 hours. The medium was then substituted with a complete growth medium.
At 4 and 24 hours, cells were washed three times with PBS and fixed with 1% glutaraldehyde solution for 15 min. After fixation, cells were washed three times with PBS and mounted in glycerol mounting solution (10 mM phosphate, 150 mM NaCl, 70% glycerol, pH 7.5). The localization of fluorescein labelled phosphothioate oligonucleotide was determined by fluorescent microscopy, using a Zeiss fluorescent microscope.

HeLa cells [3] = assay: Intracellular delivery of fluorescein labelled anionic polypeptide, fluorescent microscopy; settings: 1 μM labelled polyanion in the presence of 25 μM compound (1)

CCCCCCCC/C=C\CCCCCCCC(=O)OCCN(CCOC(=O)CCCCCCC/C=C\CCCCCCCC)C(=O)[C@@H](N)CCCCN.Cl.Cl [Compound 1, L-Lysine-bis(O,O′-oleoyl-β-hydroxyethyl)amide dihydrochloride]
transfection in comparison to DOTAP transfection (HeLa cells [1]; absence of serum): 6 fold
transfection in comparison to DOTAP transfection (HeLa cells [1]; presence of serum): 12 fold
time after which the same luciferase activity (4.5×10^4 light units) was observed (HeLa cells [1]; with serum): 3 hours
transfection higher than obtained with DOTAP (K562 cells): more than 10 fold
fluorescence intensity at 25 μM compared with 8 μM compound (1) (HeLa cells [2]; 1 μM fluorescein labelled oligonucleotide): higher
fluorescence of cells (HeLa cells [2]; 1 μM fluorescein labelled oligonucleotide in the presence of compound (1) (8 μM and 25 μM), 4 hours): very bright punktate fluorescence in the cytoplasm
fluorescence of cells (HeLa cells [2]; 1 μM fluorescein labelled oligonucleotide in the presence of compound (1), after 24 hours): very clear punktate fluorescence in the cytoplasm
fluorescence of cells (HeLa cells [3]; after 45 min): bright cytoplasmic punktate fluorescence
fluorescence of cells (HeLa cells [3]; after 24 hours): very bright punktate fluorescence in the cytoplasm

5′-ACT TGG ATA CGC ACG-fluorescein-3 [fluorescein labelled oligonucleotide, reference compound]
fluorescence of cells (HeLa cells [2]; 1 μM fluorescein labelled oligonucleotide alone, after 4 and 24 hours, without serum): faint fluorescence
effect of serum on fluorescence and distribution (HeLa cells [2]; experiments performed in the presence of serum): did not change the overall fluorescence and distribution
